# Results published in paper PMC8991007, “Benzylic Dehydroxylation of Echinocandin Antifungal Drugs Restores Efficacy against Resistance Conferred by Mutated Glucan Synthase” (Journal of the American Chemical Society, 2022).
# Where two headings read alike, the source gives them in different places. *1 amine or outer side, *2 acyl side, *3 side chain or, on linkers, in order; H or OH if unused. Where a SMILES comes first, the peptide text is derived from it. Bridges are numbered along the chain shown (N, C = ends). [ ]: non-standard residue; d: D form. The star is where a group is joined. pTerphenylCO(4''-OnC5H11) = CCCCCOc1ccc(-c2ccc(-c3ccc(C(=O)*)cc3)cc2)cc1; Orn(4R-OH,5R-OH) = O=C([C@H](C[C@@H](O)[C@@H](O)N[*:3])N[*:1])[*:2]; Pro(3S-OH,4S-Me) = C[C@H]1CN[C@H](C(=O)O)[C@H]1O; hTyr(3R-OH) = N[C@H](C(=O)O)[C@H](O)Cc1ccc(O)cc1; Hyp = O=C(O)[C@@H]1C[C@@H](O)CN1
# How the values were obtained:
# THLE-2 cells = experiment: cells; assay type: cell-based; details: Homo sapiens
# Description: The effects of ANF and RZF and their dehydroxylated derivatives 1 and 2 on the viability of human cells were further evaluated in an assay with THLE-2 cells, which are a transformed human liver epithelial cell line. These cells express phenotypic characteristics of normal adult liver epithelial cells.
# THLE-2 cells (ATCC, cat. no. CRL2706) were cultured in 384-well plates coated with BEBM (Lonza, cat. no CC3170) containing 100 μg/mL BSA, 1:100 fibronectin (Sigma, cat. no. F0895), and a 1:100 PureCol EZ Gel Solution (Sigma, cat. no. 5074) for 50–60 min at 37 °C. THLE-2 cells were plated at a density of 2.5 × 10^3 cells/well in the coated plates in a total volume of 20 μL. Culture media were BEGM supplemented with 5 ng/mL hEGF (Sigma, cat. no. E5036), 70 ng/mL phosphoethanolamine (Sigma, cat. no. P0503), and 10% fetal bovine serum. Plates were incubated overnight at 37 °C, 95% humidity, and 5% CO2. The culture medium was replaced with 50 μL of a fresh medium, and compounds were applied to the cells in triplicate. Plates were cultured for another 72 h, and ATP was quantified using a CellTiter-Glo kit (Promega #G7573) according to the manufacturer’s protocol. The luminescence signal was detected using a PHERAstar FS (BMG Labtech).
# C. glabrata = experiment: Minimum inhibitory concentration broth double-dilution assay; assay type: cell-based, Candida glabrata; details: for MIC: 24 h, 30 °C
# Description: (§1) The antifungal activities of compounds 1 and 2 were evaluated against a panel of 50 strains of C. albicans and C. glabrata (Table S4), including echinocandin-resistant strains that were constructed by introducing mutations within and near the defined hotspots in the FKS1 and/or FKS2 genes.[27] To evaluate antifungal activity, we determined MIC values. The MIC was defined as the lowest drug concentration that led to turbidity (measured at 600 nm) of less than or equal to 35% of that of the untreated culture. As controls, we tested CSF, MCF, ANF, and RZF.
# (§2) All of the tested compounds were dissolved in anhydrous DMSO to a concentration of 5 mg/mL. Candida strains were streaked from a glycerol stock onto YPAD agar plates and grown for 24 h at 30 °C. Colonies were suspended in 1 mL of PBS and diluted to an O.D. of 0.01 at 600 nm with YPAD broth and added into flat-bottom 96-well microplates (Corning) containing a gradient of twofold dilutions per tested compound with concentrations ranging from 64 to 0.0009 μg/mL. Control wells with no drug and blank wells without yeast cells containing YPAD only were also prepared. […] Each concentration was tested in triplicate, and results were confirmed by at least two independent sets of experiments.
# Hs 578T = experiment: Phenotypic viability assay of GFP reporter cell line; assay type: cell-based; details: Homo sapiens; Hs 578T expressing GFP, 24 h, mean ± SD
# Description: (§3) In this analysis, we used HCT-116, a human colorectal carcinoma cell line; UACC-62, a human melanoma cell line; Hs 578T, a human mammary gland carcinoma cell line, and SF-295, a human glioblastoma cell line. […] The highest concentration of the echinocandins used for the cell viability tests was determined based on the reported maximal plasma concentrations (Cmax) of ANF and RZF measured in humans. A Cmax of approximately 7 μM was measured during a pharmacokinetic study of ANF in patients with candidemia or invasive candidiasis who were treated with a 200 mg loading dose on day 1, followed by a daily 100 mg maintenance dose.[64]
# (§4) Human cell lines HCT-116, UACC-62, Hs 578T, and SF-295 were obtained from the Life Sciences Core Facilities of the Nancy & Stephen Grand Israel National Center for Personalized Medicine. Cell lines were grown in an RPMI medium (Gibco, cat. no. 21875-034) supplemented with 10% fetal calf serum (Biological Industries, cat. no. 04-007-1A), Pen/Strep (Biological Industries, cat. no. 03-031-1B), and glutamine (Biological Industries, cat. no. 03-020-1B). GFP was introduced into cells using TALENS according to a previously reported protocol.[73] GFP cells were selected by FACS and propagated.
# (§5) Assay-ready plates were designed using in-house software (CHEMPION, INCPM software development team) and prepared in 384-well Greiner plates (cat. no. 781091) using an Echo 555 Acoustic Liquid Handler (Labcyte). The final DMSO concentration in all samples was 0.4%. Prior to the experiment, cells were trypsinized and counted using a Countess cytometer. Cells were then diluted to 40,000 cells/mL in a fresh medium. Cells (50 μL/well; 2000 cells/well) were then dispensed with a Thermo Combi dispenser into plates containing predispensed compounds. After 30 min at room temperature to ensure uniform adherence of cells, the plates were moved to an automated incubator (Liconic STX44) and incubated at 37 °C. An automated confocal microscope with a 4× S Fluor lens (Molecular Devices ImageExpress) was used to acquire images of GFP-expressing cells after 24 h of incubation. Images were then analyzed using MetaExpress with a custom protocol (Custom Module Editor), and data were annotated and normalized using Genedata Screener software. Final normalized data were then loaded into CDD Vault software for comparative data visualization.
# C. albicans = experiment: Minimum inhibitory concentration broth double-dilution assay; assay type: cell-based, Candida albicans; details: for MIC: 24 h, 30 °C
# Description: as §1, §2
# UACC-62 = experiment: cells; assay type: cell-based; details: Homo sapiens; UACC-62 expressing GFP, 24 h, mean ± SD; read-out: IC50 (cell viability)
# Description: as §3, §4, §5
# SF-295 = experiment: cells; assay type: cell-based; details: Homo sapiens; SF-295 expressing GFP, 24 h, mean ± SD; read-out: IC50 (cell viability)
# Description: as §3, §4, §5
smiles,measurement,setting,value
"CCCCCOc1ccc(-c2ccc(-c3ccc(C(=O)N[C@H]4C[C@@H](O)[C@@H](O)NC(=O)[C@@H]5[C@@H](O)[C@@H](C)CN5C(=O)[C@H]([C@@H](C)O)NC(=O)[C@H]([C@H](O)Cc5ccc(O)cc5)NC(=O)[C@@H]5C[C@@H](O)CN5C(=O)[C@H]([C@@H](C)O)NC4=O)cc3)cc2)cc1 [Compound 1, dehydroxy-ANF] ({pTerphenylCO(4''-OnC5H11)}-[Orn(4R-OH,5R-OH)]T[Hyp][hTyr(3R-OH)]T[Pro(3S-OH,4S-Me)]; lactam 1-C)",IC50,"THLE-2 cells; THLE-2, 72 h of incubation, ranges for ANF and 1 and for RZF and 2 stated jointly, read-out: IC50 value (THLE-2 viability)",36 to 41 µM
same,IC50,"THLE-2 cells; THLE-2, 72 h, ATP luminescence, read-out: IC50 (cell viability)",36.4 ± 2.75 µM
same,MIC,C. glabrata; #9 C. glabrata EF1620,0.004 µg/mL
same,MIC,C. glabrata; #10 C. glabrata TGL00277,8 µg/mL
same,MIC,C. glabrata; #11 C. glabrata TGL00275,8 µg/mL
same,MIC,C. glabrata; #12 C. glabrata CST78,0.002 µg/mL
same,MIC,C. glabrata; #13 C. glabrata TGL00265,1 µg/mL
same,MIC,C. glabrata; #14 C. glabrata TGL00264,> 64 µg/mL
same,MIC,C. glabrata; #15 C. glabrata TGL00263,1 µg/mL
same,MIC,C. glabrata; #16 C. glabrata TGL00065,16 µg/mL
same,MIC,C. glabrata; #17 C. glabrata CST34,0.002 µg/mL
same,MIC,C. glabrata; #18 C. glabrata TGL00258,32 µg/mL
same,MIC,C. glabrata; #19 C. glabrata TGL00256,0.25 µg/mL
same,MIC,C. glabrata; #20 C. glabrata TGL00107,> 64 µg/mL
same,MIC,C. glabrata; #21 C. glabrata TGL00056,> 64 µg/mL
same,MIC,C. glabrata; #22 C. glabrata M12,0.002 µg/mL
same,MIC,C. glabrata; #23 C. glabrata TGL00270,1 µg/mL
same,MIC,C. glabrata; #24 C. glabrata TGL00269,0.063 µg/mL
same,MIC,C. glabrata; #25 C. glabrata TGL00268,> 64 µg/mL
same,MIC,C. glabrata; #26 C. glabrata TGL00268,> 64 µg/mL
same,MIC,C. glabrata; #27 C. glabrata EB0911,0.002 µg/mL
same,MIC,C. glabrata; #28 C. glabrata TGL00261,0.25 µg/mL
same,MIC,C. glabrata; #29 C. glabrata TGL00109,64 µg/mL
same,MIC,C. glabrata; #30 C. glabrata TGL00259,4 µg/mL
same,MIC,C. glabrata; #31 C. glabrata EF1237,0.001 µg/mL
same,MIC,C. glabrata; #36 C. glabrata F15,0.002 µg/mL
same,MIC,C. glabrata; #38 C. glabrata CBS138 (ATCC 2001),0.004 µg/mL
same,MIC,C. glabrata; #41 C. glabrata P35_2,0.002 µg/mL
same,MIC,C. glabrata; #43 C. glabrata SLL2glab,0.002 µg/mL
same,MIC,C. glabrata; #46 C. glabrata BG2,0.001 µg/mL
same,increase in potency on dehydroxylation of ANF (ratio MIC (ANF)/MIC (1)),"C. glabrata; C. glabrata strain 28, Fks2 phenylalanine 659 deleted",8 fold
same,IC50,Hs 578T,> 40 µM
same,MIC,C. albicans; #1 C. albicans Sc5314,0.008 µg/mL
same,MIC,C. albicans; #2 C. albicans DPL1015 (DP-A15),0.031 µg/mL
same,MIC,C. albicans; #3 C. albicans DPL1016 (DP-A15-10),1 µg/mL
same,MIC,C. albicans; #4 C. albicans T-2068 (DP-C42),0.25 µg/mL
same,MIC,C. albicans; #5 C. albicans T-2069 (DP-85),0.5 µg/mL
same,MIC,C. albicans; #6 C. albicans (DP-89),1 µg/mL
same,MIC,C. albicans; #7 C. albicans T-2076 (DP-194),0.5 µg/mL
same,MIC,C. albicans; #8 C. albicans T-2077 (DP-205),0.125 µg/mL
same,MIC difference between ANF and dehydroxy derivative 1 (ratio MIC (ANF)/MIC (1)),"C. albicans; C. albicans strain 4, Fks1 phenylalanine 641 to serine",8 fold
same,IC50,UACC-62,> 40 µM
same,IC50,SF-295,17.5 ± 1.57 µM
